“Also recorded” adds a separate entry of the source. Where two headings read alike, the source gives them in different places.
Experiments:
rat MOR = target: T1, rat MOR (Rattus norvegicus, UniProt P33535); assay: Radioligand equilibrium competition binding, MOR; conditions: [3H]DAMGO; membranes from CHO cells expressing rat MOR; mean ± SEM, at least three experiments
T1 construct: expressed in transfected cells

[1] = Metabolic stability in mouse liver microsomes; format: in vitro ADME; conditions: pH 7.4, 5 µM peptide, 0.25 mg/mL protein, with NADPH, 37 °C, read-out: t1/2 in mouse liver microsomes
Description: The macrocyclic tetrapeptide (5 µM) in 1% acetonitrile was incubated with mouse liver microsomes (0.25 mg/mL protein, Xenotech, Lenexa, KS, USA) at 37 °C in the presence or absence of co-factor NADPH RapidStart System (1 mM, Xenotech) or NADPH solution (Sigma, St. Louis, MO, USA) in potassium phosphate buffer (50 mM, pH 7.4). Aliquots (100 µL) taken at 0, 5, 15, 30, 60 and 120 min were quenched with ice-cold acetonitrile (1 vol) containing internal standard ([D-NMeAla^2]CJ-15,208 [26], 5 µM) to precipitate the proteins. The lack of endogenous interference with the analysis of the stereoisomer or internal standard was confirmed by analyzing samples lacking the macrocyclic tetrapeptide.
Following centrifugation at 10,000× g rpm for 10 min, the supernatant (50 µL) was diluted with water (75 µL), stored overnight at −20 °C and analyzed by LC-MS/MS using methodology similar to that described for [D-Trp]CJ-15,208 [32]. Liquid chromatography was performed on a Hypersil BDS C8 column (50 mm × 2.1 mm, 3 µm) with a flow rate of 0.2 mL/min and an injection volume of 20 µL using an Acquity UPLC system (Waters, Milford, MA, USA). The peptides were separated using a gradient of aqueous acetonitrile containing 0.08% formic acid of 20% B (0–2 min), 20–50% B (2–3 min), 50–80% B (3–6 min), 80% B (6–7 min), 80–20% B (7–8 min) and 20% B (8–10 min).
ESI-MS/MS was performed on a Waters Quatro triple quadrupole instrument operating in the positive ion multiple reaction monitoring mode. Data acquisition was carried out with Mass Lynx 4.1 software with the following settings: capillary voltage, 2500 V; cone voltage, 30 V; source temperature, 100 °C; desolvation temperature, 250 °C; cone gas flow, 279 L/h; desolvation gas flow, 1157 L/h; LM 1 resolution, 14; HM 1 resolution, 14; ion energy 1, 1.0; MS/MS mode entrance, -1; MS/MS collision energy, 35 eV; MS/MS mode exit, 2; LM 2 resolution, 13.0; HM 2 resolution, 13.0; ion energy 2, 1.5; multiplier, 650; collision cell pressure, 1.63 × 10^−3 mbar; collision gas, argon. The transition m/z 578.2 ([M + H]^+) → 217.2 was monitored to determine the peak area counts of the stereoisomers, and m/z 566.2 ([M + H]^+) → 232.9 was monitored to determine the peak area counts of the internal standard (collision energy 22 eV) with the following settings: dwell time, 0.3 s; delay, 0.05 s.

C57BL/6J mice [2] = assay: 55 °C warm-water tail-withdrawal assay (antinociception); format: in vivo, mouse
Description: For intracerebroventricular (i.c.v.) administration the macrocyclic tetrapeptides were dissolved in dimethyl sulfoxide (DMSO), followed by addition of sterile saline (0.9%) so that the final vehicle was 50% DMSO and 50% saline, and the i.c.v. injections performed as described previously. This concentration of DMSO was not observed to have antinociceptive or behavioral effects in previous use. For per os (p.o.) administration the macrocyclic tetrapeptides were administered in 10% Solutol in 0.9% saline. All solutions for animal administration were prepared fresh daily.
The 55 °C warm-water tail-withdrawal assay was performed in mice as previously described, with the latency of the mouse to withdraw its tail from the water taken as the endpoint (a cut-off time of 15 sec was used in this assay). Antinociception was calculated according to the following formula: % antinociception = 100 × (test latency − control latency)/(15 − control latency). Tail-withdrawal data points are the means of 8–16 mice, unless otherwise indicated, with SEM shown by error bars.
All dose-response lines were analyzed by regression, and ED50 (effective dose producing 50% antinociception) values and 95% confidence intervals (C.I.) determined using individual data points from graded dose-response curves with Prism 8.0 software (GraphPad, La Jolla, CA, USA). Percent antinociception was used to determine within group effects and to allow comparison to baseline latency in tail-withdrawal experiments. The statistical significance of differences between ED50 values was determined by evaluation of the ED50 value shift via nonlinear regression modeling with Prism software. Significant differences in behavioral data were analyzed by ANOVA (one-way or two-way with repeated measures (RM), as appropriate). Significant results were further analyzed with Sidak’s, Tukey’s, or Dunnett’s multiple comparison post hoc tests, as appropriate. Data for conditioned place preference experiments were analyzed by two-way RM ANOVA, with analyses examining the main effect of conditioned place preference phase (e.g., pre- or post-conditioning) and the interaction of drug pretreatment. Significant effects were further analyzed using Sidak’s HSD post hoc testing. All data are presented as mean ± SEM, with significance set at p < 0.05.

C57BL/6J mice [3] = assay: Opioid receptor involvement in antinociception (antagonist pretreatment, tail-withdrawal assay); format: in vivo, mouse; conditions: i.c.v. (1, 3, 4, 5 at 10 nmol, 2 at 100 nmol); pretreatment with β-FNA, nor-BNI or naltrindole
DOR = target: T2, DOR (Mus musculus, UniProt P32300); assay: Antagonist activity against DOR-selective agonist SNC-80 (tail-withdrawal assay); format: in vivo; conditions: stereoisomer 100 nmol i.c.v. pretreatment; SNC-80 100 nmol i.c.v.
T2 construct: from tissue; host or cells: whole animal, C57BL/6J mice
T2 sequence (P32300 whole entry): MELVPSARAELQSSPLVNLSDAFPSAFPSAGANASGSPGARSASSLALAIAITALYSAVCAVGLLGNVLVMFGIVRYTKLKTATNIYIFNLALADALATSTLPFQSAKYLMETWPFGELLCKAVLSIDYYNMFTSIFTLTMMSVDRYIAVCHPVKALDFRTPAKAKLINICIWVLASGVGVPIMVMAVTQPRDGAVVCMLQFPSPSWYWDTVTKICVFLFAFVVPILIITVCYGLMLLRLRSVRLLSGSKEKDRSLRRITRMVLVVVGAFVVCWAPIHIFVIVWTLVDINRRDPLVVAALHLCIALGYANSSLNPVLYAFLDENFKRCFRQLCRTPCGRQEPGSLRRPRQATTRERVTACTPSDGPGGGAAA

rat KOR [4] = target: T3, rat KOR (Rattus norvegicus, UniProt P34975); conditions: ratio Ki(MOR)/Ki(KOR)
T3 sequence (P34975 whole entry): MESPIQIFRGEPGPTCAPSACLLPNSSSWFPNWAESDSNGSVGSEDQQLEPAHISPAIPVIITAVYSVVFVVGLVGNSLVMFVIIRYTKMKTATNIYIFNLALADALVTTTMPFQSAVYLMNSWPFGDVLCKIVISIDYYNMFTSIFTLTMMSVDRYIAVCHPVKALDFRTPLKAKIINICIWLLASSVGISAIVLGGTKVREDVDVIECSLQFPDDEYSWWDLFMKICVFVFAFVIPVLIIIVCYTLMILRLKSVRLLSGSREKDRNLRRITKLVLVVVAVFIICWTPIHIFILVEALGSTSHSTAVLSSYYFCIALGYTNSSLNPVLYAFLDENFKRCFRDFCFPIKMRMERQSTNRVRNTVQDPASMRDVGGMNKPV

C57BL/6J mice [5] = conditions: mouse, in vivo
C57BL/6J mice [6] = conditions: mouse, in vivo; remark: listed apart in the source
C57BL/6J mice [7] = conditions: mouse, in vivo; remark: listed apart in the source
rat KOR [8] = target: T3, rat KOR; assay: biochemical
C57BL/6J mice [9] = assay: Acute antinociceptive tolerance (tail-withdrawal assay, dosing at 0 and 8 h); conditions: i.c.v.; for Fold-Shift, Naïve ED50 vs. Second ED50: 0 h vs 8 h; for ED50 (95% C.I.) Pretreated Mice: 8 h after pretreatment with ED50 dose of the same compound, * significantly different from naïve; for acute antinociceptive tolerance: ED50 at 8 h vs 0 h; for Naïve ED50 (95% C.I.): naïve C57BL/6J mice, tail-withdrawal assay
mouse DOR = conditions: radioligand binding; ref [19]; cited from earlier work
[10] = design: method as in Khaliq et al., manuscript in preparation; conditions: ref Khaliq et al., manuscript in preparation; cited from earlier work
C57BL/6J mice [11] = conditions: mice, ref [19], [20], cited from earlier work
C57BL/6J mice [12] = conditions: ref [19], [20]; cited from earlier work
C57BL/6J mice [13] = assay: Conditioned place preference / aversion assay; conditions: 10 mg/kg, i.p., two-day place conditioning
C57BL/6J mice [14] = assay: Respiration and ambulation, CLAMS/Oxymax system; conditions: 10 mg/kg, i.p.; 60 min

T1 sequence (P33535 whole entry): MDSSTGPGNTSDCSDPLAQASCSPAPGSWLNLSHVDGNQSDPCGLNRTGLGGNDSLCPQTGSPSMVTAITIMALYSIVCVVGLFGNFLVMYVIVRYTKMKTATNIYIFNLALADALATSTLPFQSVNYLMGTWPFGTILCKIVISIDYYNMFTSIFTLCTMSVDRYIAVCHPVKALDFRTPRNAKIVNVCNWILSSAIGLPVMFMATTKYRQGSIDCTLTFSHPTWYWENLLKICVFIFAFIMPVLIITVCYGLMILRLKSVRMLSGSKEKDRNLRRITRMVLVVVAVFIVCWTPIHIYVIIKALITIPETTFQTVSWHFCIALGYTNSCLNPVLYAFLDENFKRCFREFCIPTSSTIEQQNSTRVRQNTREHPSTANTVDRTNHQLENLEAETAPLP

In the case of `O=C1N[C@H](Cc2ccccc2)C(=O)N[C@H](Cc2c[nH]c3ccccc23)C(=O)N[C@@H](Cc2ccccc2)C(=O)N2CCC[C@H]12` (single isomer, unassigned) [Stereoisomer 5, cyclo[Phe-D-Pro-D-Phe-D-Trp]], the Ki (rat MOR) is reported as 5800 ± 1450 nM, the half-life at 5 µM [1] is reported as 15 min and the “time of peak antinociception” value (C57BL/6J mice [2]; after i.c.v. administration) is reported as 30 min. The “duration of significant antinociception” value (C57BL/6J mice [2]; i.c.v. administration) was 90 min, the “ED50 (and 95% C.I.) i.c.v.” value (C57BL/6J mice [2]; i.c.v., C57BL/6J mice, antinociception at peak response) was 0.56 (0.38–0.91) nmol and the “antinociceptive efficacy” value (C57BL/6J mice [2]; p.o.) was “full antinociception”. The “time of peak antinociception” value (C57BL/6J mice [2]; p.o. administration) was 20 to 30 min, the “ED50 (and 95% C.I.) p.o.” value (C57BL/6J mice [2]; p.o., C57BL/6J mice, antinociception at peak response) was 4.72 (3.70–6.39) mg/kg and the “Receptors Involved (in antinociception)” value (C57BL/6J mice [3]) was “all three opioid receptors contributed to the antinociception; also recorded: KOR, MOR, DOR”. For the same compound, the “antagonism of SNC-80 antinociception (DOR antagonist activity)” value (DOR) was “significantly antagonized SNC-80”, the “Selectivity Ki (MOR) Ki (KOR)” value (rat KOR [4]) was 16 and the “effect on coordinated locomotor performance (rotarod) vs vehicle” value (C57BL/6J mice [5]) was “lacked any significant effect”. For the same compound, the “effect on respiration rate vs vehicle” value (C57BL/6J mice [6]) was “significant decreases in respiration rates”, the “conditioned place preference or aversion” value (C57BL/6J mice [7]) was “no significant preference or aversion” and the Ki (rat KOR [8]) was 353 ± 19 nM. The “Fold-Shift, Naïve ED50 vs. Second ED50” value (C57BL/6J mice [9]) was 1.09 fold, the “ED50 (95% C.I.) Pretreated Mice” value (C57BL/6J mice [9]) was 0.49 (0.09–1.36) nmol and the “acute antinociceptive tolerance” value (C57BL/6J mice [9]) was “Neither stereoisomer 4 or 5 demonstrated any significant changes in the ED50 values”. For the same compound, the “Naïve ED50 (95% C.I.)” value (C57BL/6J mice [9]) was 0.45 (0.28–0.70) nmol.

In the case of `O=C1N[C@@H](Cc2ccccc2)C(=O)N2CCC[C@@H]2C(=O)N[C@@H](Cc2ccccc2)C(=O)N[C@H]1Cc1c[nH]c2ccccc12` [CJ-15,208, cyclo[Phe-D-Pro-Phe-Trp]], the Ki (rat MOR) is listed as 451 ± 114 nM, the “Selectivity Ki (MOR) Ki (KOR)” value (rat KOR [4]) is listed as 16.5 and the “affinity for DOR” value (mouse DOR) is listed as “negligible affinity for DOR”. The “half-life in mouse liver microsomes” value [10] was 49 min, the “ED50 (and 95% C.I.) i.c.v.” value (C57BL/6J mice [11]; i.c.v.) was 1.74 (0.62–4.82) nmol and the “ED50 (and 95% C.I.) p.o.” value (C57BL/6J mice [11]; p.o.) was 3.49 (1.98–5.73) mg/kg. For the same compound, the “Receptors Involved (in antinociception)” value (C57BL/6J mice [12]) was “KOR, MOR”, the Ki (rat KOR [8]) was 27.4 ± 4.6 nM and the “Fold-Shift, Naïve ED50 vs. Second ED50” value (C57BL/6J mice [9]) was 2.87 fold. For the same compound, the “ED50 (95% C.I.) Pretreated Mice” value (C57BL/6J mice [9]) was 5.23 (4.23–6.48) nmol and the “Naïve ED50 (95% C.I.)” value (C57BL/6J mice [9]) was 1.82 (1.22–2.74) nmol.

With `CN1CC[C@]23c4c5ccc(O)c4O[C@H]2[C@@H](O)C=C[C@H]3[C@H]1C5` [Morphine, morphine, reference compound] the “conditioned place preference or aversion” value (C57BL/6J mice [13]) was “significant place-preference for the morphine-paired chamber”, the “effect on ambulation vs vehicle” value (C57BL/6J mice [14]) was “robust, significant increases in ambulation” and the “effect on respiration rate vs vehicle” value (C57BL/6J mice [14]) was “significant, time-dependent respiratory depression”. The “Fold-Shift, Naïve ED50 vs. Second ED50” value (C57BL/6J mice [9]) was 7.63 fold, the “acute antinociceptive tolerance” value (C57BL/6J mice [9]) was “demonstrated acute antinociceptive tolerance” and the “Naïve ED50 (95% C.I.)” value (C57BL/6J mice [9]) was 2.91 (2.48–3.41) nmol.

Reference: article PMC7504817, “Phenylalanine Stereoisomers of CJ-15,208 and [D-Trp]CJ-15,208 Exhibit Distinctly Different Opioid Activity Profiles” (Molecules, 2020)
